Data reported in PubChem BioAssay AID256 (DTP/NCI, 2004).
“And” between values parts separate entries of the source, which are not always exact repeats. Identical values can stand only once. Inconclusive results and toxic doses are left out. Rule for the calls: active = survival T/C of 150% or more; inactive = T/C below 125% in these data.

System: CD2F1 mice, L1210 leukemia ip, survival T/C
Experiment: NCI In Vivo Anticancer Drug Screen. Data for tumor model L1210 Leukemia (intraperitoneal) in CD2F1 (CDF1) mice
Conditions: higher = longer survival
Outline: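 Implant tumor; dose compound or vehicle; measure endpoint in both groups; report treated divided by control.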

[1] = endpoint: mean survival time, dose: 100.0 mg/kg/injection, schedule: Q01DX009 (ip), vehicle: saline with Tween-80
[2] = endpoint: mean survival time, dose: 100.0 mg/kg/injection, schedule: Q04DX003 (ip), vehicle: saline with Tween-80
[3] = endpoint: mean survival time, dose: 200.0 mg/kg/injection, schedule: Q01DX009 (ip), vehicle: saline with Tween-80
[4] = endpoint: mean survival time, dose: 200.0 mg/kg/injection, schedule: Q04DX003 (ip), vehicle: saline with Tween-80
[5] = endpoint: mean survival time, dose: 400.0 mg/kg/injection, schedule: Q01DX009 (ip), vehicle: saline with Tween-80
[6] = endpoint: mean survival time, dose: 400.0 mg/kg/injection, schedule: Q04DX003 (ip), vehicle: saline with Tween-80
[7] = endpoint: mean survival time, dose: 25.0 mg/kg/injection, schedule: Q04DX002 (ip), vehicle: saline with Tween-80
[8] = endpoint: mean survival time, dose: 100.0 mg/kg/injection, schedule: Q01DX001 (ip), vehicle: saline with Tween-80
[9] = endpoint: mean survival time, dose: 200.0 mg/kg/injection, schedule: Q01DX001 (ip), vehicle: saline with Tween-80
[10] = endpoint: mean survival time, dose: 400.0 mg/kg/injection, schedule: Q01DX001 (ip), vehicle: saline with Tween-80
[11] = endpoint: mean survival time, dose: 50.0 mg/kg/injection, schedule: Q04DX002 (ip), vehicle: saline with Tween-80
[12] = endpoint: mean survival time, dose: 100.0 mg/kg/injection, schedule: Q04DX002 (ip), vehicle: saline with Tween-80
[13] = endpoint: mean survival time, dose: 400.0 mg/kg/injection, schedule: Q04DX002 (ip), vehicle: saline with Tween-80

Measured: T/C

O=C1COC(C(Cl)(Cl)Cl)CN1 (stereo not given)
inactive: [1] 98 % of control | [2] 102 % of control | [3] 95 % of control | [4] 100 % of control | [5] 102 % of control | [6] 104 % of control

COc1nn(O)cc(C)c1=N
inactive: endpoint: mean survival time, dose: 6.25 mg/kg/injection, schedule: Q04DX002 (ip), vehicle: saline with Tween-80 93 % of control | endpoint: mean survival time, dose: 12.5 mg/kg/injection, schedule: Q04DX002 (ip), vehicle: saline with Tween-80 101 % of control | [7] 101 % of control

O=[N+]([O-])c1cc(Br)cc(Br)c1[N+](=O)[O-]
inactive: [8] 97 % of control | [1] 102 % of control | [9] 89 % of control | [3] 102 % of control | [10] 95 % of control | [5] 98 % of control

[Cl][Pt+2][Cl].[NH-]CC([NH-])CN
inactive: endpoint: mean survival time, dose: 0.39 mg/kg/injection, schedule: Q04DX003 (ip), vehicle: saline 89 % of control | endpoint: mean survival time, dose: 0.78 mg/kg/injection, schedule: Q04DX003 (ip), vehicle: saline 97 % of control | endpoint: mean survival time, dose: 1.56 mg/kg/injection, schedule: Q04DX003 (ip), vehicle: saline 103 % of control | endpoint: mean survival time, dose: 3.12 mg/kg/injection, schedule: Q04DX003 (ip), vehicle: saline 103 % of control | endpoint: mean survival time, dose: 6.25 mg/kg/injection, schedule: Q04DX003 (ip), vehicle: saline 111 % of control | endpoint: mean survival time, dose: 12.5 mg/kg/injection, schedule: Q04DX003 (ip), vehicle: saline 109 % of control

CCCCSc1ncn(C)c1[N+](=O)[O-]
inactive: endpoint: mean survival time, dose: 50.0 mg/kg/injection, schedule: Q01DX001 (ip), vehicle: saline with Tween-80 101 % of control | [8] 103 % of control | [9] 101 % of control

Oc1ccc(N=Cc2ccccc2O)cc1
inactive: endpoint: mean survival time, dose: 178.0 mg/kg/injection, schedule: Q04DX003 (ip), vehicle: carboxymethylcellulose (CMC) 101 % of control | endpoint: mean survival time, dose: 267.0 mg/kg/injection, schedule: Q04DX003 (ip), vehicle: carboxymethylcellulose (CMC) 102 % of control | endpoint: mean survival time, dose: 400.0 mg/kg/injection, schedule: Q04DX003 (ip), vehicle: carboxymethylcellulose (CMC) 98 % of control | endpoint: mean survival time, dose: 600.0 mg/kg/injection, schedule: Q04DX003 (ip), vehicle: carboxymethylcellulose (CMC) 101 % of control

CC(C)(C)N1CC2C(c3ccccc3)NNC2(O)C1=O (stereo not given)
inactive: [1] 109 % of control | [3] 113 % of control | [5] 105 % of control

CS(C)=O.O=C([O-])CC(=O)[O-].[NH-]CC(O)CN(Cc1ccccc1)CC(O)CN.[Pt+4] (stereo not given)
inactive: endpoint: median survival time, dose: 10.0 mg/kg/injection, schedule: Q04DX003 (ip), vehicle: water 107 % of control | endpoint: median survival time, dose: 20.0 mg/kg/injection, schedule: Q04DX003 (ip), vehicle: water 104 % of control | endpoint: median survival time, dose: 40.0 mg/kg/injection, schedule: Q04DX003 (ip), vehicle: water 104 % of control | endpoint: median survival time, dose: 50.0 mg/kg/injection, schedule: Q04DX003 (ip), vehicle: water 100 % of control | endpoint: median survival time, dose: 80.0 mg/kg/injection, schedule: Q04DX003 (ip), vehicle: water 108 % of control | endpoint: median survival time, dose: 100.0 mg/kg/injection, schedule: Q04DX003 (ip), vehicle: water 104 % of control | endpoint: median survival time, dose: 200.0 mg/kg/injection, schedule: Q04DX003 (ip), vehicle: water 117 % of control and 110 % of control | endpoint: median survival time, dose: 400.0 mg/kg/injection, schedule: Q04DX003 (ip), vehicle: water 114 % of control

CCOC(=O)/C=C(/Nc1ccc(S(=O)(=O)F)cc1)c1ccccc1
inactive: endpoint: mean survival time, dose: 100.0 mg/kg/injection, schedule: Q01DX009 (ip), vehicle: Klucel (hydroxypropylcellulose) (HPC) 100 % of control | endpoint: mean survival time, dose: 200.0 mg/kg/injection, schedule: Q01DX009 (ip), vehicle: Klucel (hydroxypropylcellulose) (HPC) 100 % of control | endpoint: mean survival time, dose: 400.0 mg/kg/injection, schedule: Q01DX009 (ip), vehicle: Klucel (hydroxypropylcellulose) (HPC) 97 % of control

Nc1cc(OCc2ccccc2)c(N)c(N)n1
inactive: endpoint: mean survival time, dose: 1.56 mg/kg/injection, schedule: Q01DX005 (ip), vehicle: water 98 % of control | endpoint: mean survival time, dose: 3.13 mg/kg/injection, schedule: Q01DX005 (ip), vehicle: water 97 % of control | endpoint: mean survival time, dose: 6.25 mg/kg/injection, schedule: Q01DX005 (ip), vehicle: water 98 % of control | endpoint: mean survival time, dose: 12.5 mg/kg/injection, schedule: Q01DX005 (ip), vehicle: water 98 % of control | endpoint: mean survival time, dose: 25.0 mg/kg/injection, schedule: Q01DX005 (ip), vehicle: water 97 % of control

Clc1cccc(-c2nc3ccccc3c3ccccc23)c1
inactive: [2] 93 % of control | [6] 98 % of control

CCCCCCCCCCCCCCCCCCOCCOCCOCCOCCO
inactive: [7] 91 % of control | [11] 100 % of control | [12] 94 % of control | [13] 94 % of control

COC1=CC(c2ccccc2[N+](=O)[O-])OC1=O (stereo not given)
inactive: [1] 97 % of control | [2] 96 % of control | [3] 91 % of control | [4] 91 % of control | [5] 91 % of control | [6] 93 % of control

COc1ccc2nc3c(Cl)cccc3c(Oc3ccccc3)c2c1
inactive: [8] 94 % of control | [9] 92 % of control | [10] 101 % of control

C/C=C/C=C/C(=O)n1nnn(/C=C/C=C/C)c1=O
inactive: [11] 98 % of control | [12] 91 % of control | endpoint: mean survival time, dose: 200.0 mg/kg/injection, schedule: Q04DX002 (ip), vehicle: saline with Tween-80 95 % of control | [13] 98 % of control

COc1ccc(C(=O)CC(C(=O)O)c2ccc3c(c2)OCO3)cc1OC (stereo not given)
inactive: [2] 101 % of control | [4] 101 % of control | [6] 101 % of control

CCOC(=O)c1oc(C)nc1C
inactive: endpoint: mean survival time, dose: 12.5 mg/kg/injection, schedule: Q01DX001 (ip), vehicle: Klucel (hydroxypropylcellulose) (HPC) 90 % of control | endpoint: mean survival time, dose: 25.0 mg/kg/injection, schedule: Q01DX001 (ip), vehicle: Klucel (hydroxypropylcellulose) (HPC) 104 % of control | endpoint: mean survival time, dose: 50.0 mg/kg/injection, schedule: Q01DX001 (ip), vehicle: Klucel (hydroxypropylcellulose) (HPC) 98 % of control | endpoint: mean survival time, dose: 100.0 mg/kg/injection, schedule: Q01DX001 (ip), vehicle: Klucel (hydroxypropylcellulose) (HPC) 101 % of control | endpoint: mean survival time, dose: 200.0 mg/kg/injection, schedule: Q01DX001 (ip), vehicle: Klucel (hydroxypropylcellulose) (HPC) 98 % of control

C=C1C(=O)OC2(C)C(C)=C(C)C12C (stereo not given)
inactive: endpoint: mean survival time, dose: 100.0 mg/kg/injection, schedule: Q04DX003 (ip), vehicle: saline 101 % of control | endpoint: mean survival time, dose: 200.0 mg/kg/injection, schedule: Q04DX003 (ip), vehicle: saline 112 % of control | endpoint: mean survival time, dose: 400.0 mg/kg/injection, schedule: Q04DX003 (ip), vehicle: saline 108 % of control

C/C=C\c1ccc(OCCOC(=O)Nc2ccc(Cl)cc2C)c(OC)c1
inactive: endpoint: mean survival time, dose: 50.0 mg/kg/injection, schedule: Q01DX009 (ip), vehicle: saline with Tween-80 87 % of control | [1] 92 % of control | [3] 100 % of control

CC1(C)N=C(N)N=C(N)N1c1ccc(OCCCNC(=O)Nc2cccc(S(=O)(=O)F)c2)c(Cl)c1
inactive: endpoint: mean survival time, dose: 100.0 mg/kg/injection, schedule: Q01DX009 (ip), vehicle: saline 116 % of control | endpoint: mean survival time, dose: 200.0 mg/kg/injection, schedule: Q01DX009 (ip), vehicle: saline 92 % of control

CC(C)CCCC(C)C1CCC2C3CC=C4CC(O)CCC4(C)C3CCC12C (stereo not given) (tested in a mixture with another compound)
inactive: endpoint: mean survival time, dose: 12.5 mg/kg/injection, schedule: Q01DX009 (ip), vehicle: water 102 % of control | endpoint: mean survival time, dose: 25.0 mg/kg/injection, schedule: Q01DX009 (ip), vehicle: water 100 % of control | endpoint: mean survival time, dose: 50.0 mg/kg/injection, schedule: Q01DX009 (ip), vehicle: water 102 % of control
